The target of series [1] is T1, Kappa-type opioid receptor (Homo sapiens, UniProt P41145). Format: functional.
Series [2] deals with T2, Mu-type opioid receptor (Homo sapiens, UniProt P35372). The experiment in a line: HTS Image-Based Screen for Agonists of the MOR Receptor. [Related pubchem assays (depositor defined):AID1777, AID1785, AID1786, AID2133]. Format: functional.
For series [3], the target named is T1, Kappa-type opioid receptor. The experiment in a line: KOR antagonists by imaging, SAR follow-up, image-based (AID 2348). The series is classed as functional.
For series [4], the target named is T1, Kappa-type opioid receptor. Format: functional. The source holds these as a separate data set.
The target in series [5] is T3, Delta-type opioid receptor (Homo sapiens, UniProt P41143). The experiment in a line: HTS Image-Based Screen for Antagonists of the DOR Receptor. [Related pubchem assays (depositor defined):AID1777, AID1785, AID1786, AID2133]. Format: functional.
T3 sequence (P41143 whole entry): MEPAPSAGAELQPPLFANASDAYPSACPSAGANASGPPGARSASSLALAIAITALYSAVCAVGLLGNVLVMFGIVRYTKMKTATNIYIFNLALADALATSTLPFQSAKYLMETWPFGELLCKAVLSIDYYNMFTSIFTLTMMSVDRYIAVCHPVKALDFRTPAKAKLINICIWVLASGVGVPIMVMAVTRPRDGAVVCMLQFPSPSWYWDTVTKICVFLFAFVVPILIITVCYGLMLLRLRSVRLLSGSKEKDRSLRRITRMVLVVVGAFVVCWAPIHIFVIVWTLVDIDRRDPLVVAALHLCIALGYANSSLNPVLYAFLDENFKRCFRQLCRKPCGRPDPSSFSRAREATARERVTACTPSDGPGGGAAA
Series [6] addresses T2, Mu-type opioid receptor. The experiment in a line: MOR agonists by imaging, SAR follow-up, image-based (AID 2352). The series is classed as functional.
Series [7] concerns the target T3, Delta-type opioid receptor. The experiment in a line: DOR agonists, SAR follow-up, image-based (AID 2370). The series is classed as functional.
Series [8] addresses T3, Delta-type opioid receptor. The experiment in a line: HTS Image-Based Screen for Agonists of the DOR Receptor. [Related pubchem assays (depositor defined):AID1777, AID1786, AID2133]. The series is classed as functional.
Series [9] concerns the target T1, Kappa-type opioid receptor. The experiment in a line: KOR agonist analogs, imaging readout, SAR follow-up, image-based (AID 2359). The series is classed as functional.
Series [10] addresses T3, Delta-type opioid receptor. The experiment in a line: DOR antagonists, SAR follow-up, image-based (AID 2357). Format: functional.
For series [11], the target named is T1, Kappa-type opioid receptor. The experiment in a line: SAR analysis of small molecule agonists of the kappa opioid receptor via a luminescent beta-arrestin assay. [Related pubchem assays (depositor defined):AID1777, AID1786, AID1966, AID2133, AID2136, AID2348, AID2352, AID2357, AID2359, AID2370, AID2420, AID2478, AID2491, AID2492, AID2493, AID2497, AID2498, AID2500, AID449737, AID488822, AID488842]. Format: functional.

Series [12] has as its target T2, Mu-type opioid receptor. The experiment in a line: MOR antagonists, SAR follow-up, image-based (AID 2420).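 Further: compounds added before stimulation of receptor with agonist DAMGO.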 Format: functional.
Series [13] in a line: cytotoxicity toward NIH3T3 fibroblasts, dose response, counter-screen, cell-based, ATP luminescence, mouse fibroblasts (AID 2010).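 Further: cells exposed to compound for about 90 hours before reading.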 The series is classed as functional. In general terms: The purpose of a counterscreen is to sort out artefacts and off-target activity.
The target of series [14] is T4, Mannose-6-phosphate isomerase (Homo sapiens, UniProt P34949).
T4 sequence (P34949 whole entry): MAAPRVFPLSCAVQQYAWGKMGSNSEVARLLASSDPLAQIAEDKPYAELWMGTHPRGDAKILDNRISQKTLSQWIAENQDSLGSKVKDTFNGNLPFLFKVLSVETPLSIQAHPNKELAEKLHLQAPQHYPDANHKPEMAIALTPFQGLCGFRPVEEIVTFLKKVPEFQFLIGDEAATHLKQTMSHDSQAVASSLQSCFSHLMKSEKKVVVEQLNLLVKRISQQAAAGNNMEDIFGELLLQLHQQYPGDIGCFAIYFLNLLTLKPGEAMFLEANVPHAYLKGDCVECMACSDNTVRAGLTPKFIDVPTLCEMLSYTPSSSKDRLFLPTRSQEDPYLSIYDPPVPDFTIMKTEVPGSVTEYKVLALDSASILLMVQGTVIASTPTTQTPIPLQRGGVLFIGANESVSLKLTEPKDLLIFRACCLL
The experiment in a line: inhibitors of human PMI, primary screen, biochemical, fluorescence intensity, coupled assay (AID 1209).

The nature of series [15]: inhibitors of intracellular T. cruzi replication, confirmation, NIH3T3 host cells, beta-gal luminescence (AID 2044).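 Further: intracellular parasites grown in NIH/3T3 mouse fibroblasts as host cells; luminescent beta-galactosidase reporter signal from transgenic T. cruzi replicating inside host cells; inhibitors lower the luminescence signal.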 The series is classed as functional, cell-based.
A short description of series [16]: NIH-3T3 fibroblast cytotoxicity, dose response, cytotoxicity control, cell-based, fluorescence, Alamar Blue, secondary assay (AID 2327).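 Further: NIH-3T3 mouse fibroblasts cultured with fluconazole at 8 µg/mL.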 The series is classed as functional. On the technique in general: Resazurin is reduced to fluorescent resorufin, in cell work by metabolically active cells.
A short description of series [17]: growth suppression of beta-catenin-knockout colon cells, dose response, cell-based, HCT116, human colon tumor (AID 1045).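 Further: HCT116 colon tumor cells with beta catenin knocked out; cells exposed to compound for 60 hours.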 Format: functional.
Series [18] in a line: C. albicans growth with fluconazole, confirmation, fluorescence, retest (AID 2467). Format: functional, cell-based.
Series [19] has as its system INS1. The experiment in a line: beta cell apoptosis inhibitors, cytokine rescue, dose response, luminescence, retest (AID 449756).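 Further: cell death triggered by IL-1 beta plus TNF-alpha plus IFN-gamma mixture; protective hits raise ATP signal compared with cytokine alone wells.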 The note with it: Rattus norvegicus. Format: functional, cell-based.
For series [20], the target named is T5, DNA repair and recombination protein RAD54-like (Homo sapiens, UniProt Q92698).
T5 sequence (Q92698 whole entry): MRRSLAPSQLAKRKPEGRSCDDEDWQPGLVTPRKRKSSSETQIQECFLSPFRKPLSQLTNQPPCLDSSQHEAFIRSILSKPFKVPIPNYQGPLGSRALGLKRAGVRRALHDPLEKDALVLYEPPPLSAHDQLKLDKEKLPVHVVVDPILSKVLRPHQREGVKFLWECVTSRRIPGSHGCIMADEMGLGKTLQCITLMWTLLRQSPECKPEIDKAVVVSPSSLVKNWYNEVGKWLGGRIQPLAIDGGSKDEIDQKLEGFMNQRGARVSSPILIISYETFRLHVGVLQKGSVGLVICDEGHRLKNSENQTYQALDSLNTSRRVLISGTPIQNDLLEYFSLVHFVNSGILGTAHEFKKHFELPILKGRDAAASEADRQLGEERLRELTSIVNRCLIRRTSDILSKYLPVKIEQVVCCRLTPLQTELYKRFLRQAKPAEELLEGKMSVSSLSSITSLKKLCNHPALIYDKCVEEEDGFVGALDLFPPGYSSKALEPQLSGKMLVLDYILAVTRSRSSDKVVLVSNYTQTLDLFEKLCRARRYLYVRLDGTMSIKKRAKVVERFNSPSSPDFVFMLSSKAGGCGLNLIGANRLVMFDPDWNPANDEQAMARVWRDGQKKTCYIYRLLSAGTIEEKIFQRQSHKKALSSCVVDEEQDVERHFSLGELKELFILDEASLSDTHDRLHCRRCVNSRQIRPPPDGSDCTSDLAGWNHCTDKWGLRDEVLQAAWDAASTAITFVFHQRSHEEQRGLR
The experiment in a line: inhibitors of human RAD54 branch migration, confirmation, biochemical, fluorescence, cherry-picked samples, dose series (AID 651657). Format: functional.

Series [21] in a line: growth suppression of PTEN-null colon cells, dose response, cell-based, HCT116 PTEN knockout (AID 1047).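 Further: HCT116 colon tumor cells with PTEN knocked out; cells exposed to compound for 60 hours before readout; potency for loss of cell viability measured by luminescence.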 Format: functional.
The nature of series [22]: insulin promoter down-regulators in MIN6 cells, imaging, high-content screening, mouse beta cells (AID 1628). Format: functional.
Series [23] is described as follows: MDA-MB-231 cell growth inhibition, dose response, cytotoxicity control for RAD54 inhibitor project, CellTiter-Glo luminescence, cherry-pick (AID 651692). The series is classed as functional, cell-based. (In general: Cellular ATP, detected with luciferase, serves as a proxy for viable cell number.)
The target in series [24] is Nonstructural protein 1 (Influenza A virus, UniProt Q194T2). Format: functional, Influenza A virus (A/California/07/2009(H1N1)).
Nonstructural protein 1, sequence (Q194T2 whole entry): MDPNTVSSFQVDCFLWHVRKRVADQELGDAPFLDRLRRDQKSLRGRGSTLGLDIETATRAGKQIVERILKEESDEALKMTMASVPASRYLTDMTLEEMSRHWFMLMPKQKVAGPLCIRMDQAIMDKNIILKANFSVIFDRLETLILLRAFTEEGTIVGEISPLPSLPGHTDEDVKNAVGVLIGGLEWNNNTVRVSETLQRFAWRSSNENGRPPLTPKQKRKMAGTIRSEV
A short description of series [25]: cytotoxicity in MIN6 insulinoma cells, dose response, cytotoxicity control, cell-based, mouse insulinoma (AID 2122).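 Further: confirmatory high-throughput counterscreen run to flag cytotoxic compounds; mouse MIN-6 beta cells carrying an insulin promoter eGFP reporter.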 The series is classed as functional.
The nature of series [26]: Luminescence-based counterscreen assay for KLF5 inhibitors: dose response cell-based high throughput screening assay to identify cytotoxic compounds using the IEC-6 intestinal epithelial cell line. [Related pubchem assays: 1700 (Primary screen.), 1834 (Confirmation screen.), 1858 (Summary AID.), 1905 (Counterscreen.)]. The series is classed as functional.
Series [27] addresses T6, Voltage-gated N-type calcium channel alpha-1B subunit/Amyloid beta A4 precursor protein-binding family A member 1 (Homo sapiens, UniProt Q00975+Q02410). The experiment in a line: disruptors of Mint-PDZ/N-type channel peptide interaction – biochemical, HTRF, SAR follow-up (AID 2489). Format: functional.
The target of series [28] is T6, Voltage-gated N-type calcium channel alpha-1B subunit/Amyloid beta A4 precursor protein-binding family A member 1. The experiment in a line: disruptors of Mint-PDZ/N-type channel peptide interaction – biochemical, HTRF, set 2, SAR follow-up (AID 434980). The series is classed as functional.
In series [29] the target is SUMO E1/E2 (Homo sapiens, UniProt P63279+Q9UBE0+Q9UBT2). The experiment in a line: SAR analysis of SUMOylation using HTRF in an in-Vitro dose response assay. [Related pubchem assays (depositor defined):AID2006, AID2011, AID2018, AID2069, AID2658]. Format: functional.
Series [30] has as its target T7, Cytochrome P450 1A2 (Homo sapiens, UniProt P05177).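 Further: PubChem cytochrome P450 panel assay, CYP1A2 panel member.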
T7 sequence (P05177 whole entry): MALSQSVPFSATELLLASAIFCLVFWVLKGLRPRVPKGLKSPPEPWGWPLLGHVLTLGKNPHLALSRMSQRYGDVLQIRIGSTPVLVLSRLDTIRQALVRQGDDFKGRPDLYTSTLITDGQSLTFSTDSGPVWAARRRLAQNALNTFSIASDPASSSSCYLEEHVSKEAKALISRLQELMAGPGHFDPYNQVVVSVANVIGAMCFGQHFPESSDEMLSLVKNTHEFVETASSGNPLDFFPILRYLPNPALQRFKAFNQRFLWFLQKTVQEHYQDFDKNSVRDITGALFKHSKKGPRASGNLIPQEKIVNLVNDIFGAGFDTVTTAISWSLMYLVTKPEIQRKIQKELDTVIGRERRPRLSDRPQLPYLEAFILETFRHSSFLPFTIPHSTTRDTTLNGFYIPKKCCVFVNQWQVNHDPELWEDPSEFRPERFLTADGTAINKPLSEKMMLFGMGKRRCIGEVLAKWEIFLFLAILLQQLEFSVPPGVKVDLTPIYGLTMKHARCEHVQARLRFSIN

Each structure is given as a SMILES string. “And” between values parts separate entries of the source, which are not always exact repeats. Equal entries are not always repeated. The source made the active and inactive calls. Bounds are passed on as bounds.

In general, EC50 refers to the concentration needed to bring the measured effect to its halfway point. In general, IC50 refers to the concentration that inhibits the measured activity by half. As usually defined, the AC50 is the concentration giving half of the maximal activity seen.

T6 sequence (Q00975 whole entry): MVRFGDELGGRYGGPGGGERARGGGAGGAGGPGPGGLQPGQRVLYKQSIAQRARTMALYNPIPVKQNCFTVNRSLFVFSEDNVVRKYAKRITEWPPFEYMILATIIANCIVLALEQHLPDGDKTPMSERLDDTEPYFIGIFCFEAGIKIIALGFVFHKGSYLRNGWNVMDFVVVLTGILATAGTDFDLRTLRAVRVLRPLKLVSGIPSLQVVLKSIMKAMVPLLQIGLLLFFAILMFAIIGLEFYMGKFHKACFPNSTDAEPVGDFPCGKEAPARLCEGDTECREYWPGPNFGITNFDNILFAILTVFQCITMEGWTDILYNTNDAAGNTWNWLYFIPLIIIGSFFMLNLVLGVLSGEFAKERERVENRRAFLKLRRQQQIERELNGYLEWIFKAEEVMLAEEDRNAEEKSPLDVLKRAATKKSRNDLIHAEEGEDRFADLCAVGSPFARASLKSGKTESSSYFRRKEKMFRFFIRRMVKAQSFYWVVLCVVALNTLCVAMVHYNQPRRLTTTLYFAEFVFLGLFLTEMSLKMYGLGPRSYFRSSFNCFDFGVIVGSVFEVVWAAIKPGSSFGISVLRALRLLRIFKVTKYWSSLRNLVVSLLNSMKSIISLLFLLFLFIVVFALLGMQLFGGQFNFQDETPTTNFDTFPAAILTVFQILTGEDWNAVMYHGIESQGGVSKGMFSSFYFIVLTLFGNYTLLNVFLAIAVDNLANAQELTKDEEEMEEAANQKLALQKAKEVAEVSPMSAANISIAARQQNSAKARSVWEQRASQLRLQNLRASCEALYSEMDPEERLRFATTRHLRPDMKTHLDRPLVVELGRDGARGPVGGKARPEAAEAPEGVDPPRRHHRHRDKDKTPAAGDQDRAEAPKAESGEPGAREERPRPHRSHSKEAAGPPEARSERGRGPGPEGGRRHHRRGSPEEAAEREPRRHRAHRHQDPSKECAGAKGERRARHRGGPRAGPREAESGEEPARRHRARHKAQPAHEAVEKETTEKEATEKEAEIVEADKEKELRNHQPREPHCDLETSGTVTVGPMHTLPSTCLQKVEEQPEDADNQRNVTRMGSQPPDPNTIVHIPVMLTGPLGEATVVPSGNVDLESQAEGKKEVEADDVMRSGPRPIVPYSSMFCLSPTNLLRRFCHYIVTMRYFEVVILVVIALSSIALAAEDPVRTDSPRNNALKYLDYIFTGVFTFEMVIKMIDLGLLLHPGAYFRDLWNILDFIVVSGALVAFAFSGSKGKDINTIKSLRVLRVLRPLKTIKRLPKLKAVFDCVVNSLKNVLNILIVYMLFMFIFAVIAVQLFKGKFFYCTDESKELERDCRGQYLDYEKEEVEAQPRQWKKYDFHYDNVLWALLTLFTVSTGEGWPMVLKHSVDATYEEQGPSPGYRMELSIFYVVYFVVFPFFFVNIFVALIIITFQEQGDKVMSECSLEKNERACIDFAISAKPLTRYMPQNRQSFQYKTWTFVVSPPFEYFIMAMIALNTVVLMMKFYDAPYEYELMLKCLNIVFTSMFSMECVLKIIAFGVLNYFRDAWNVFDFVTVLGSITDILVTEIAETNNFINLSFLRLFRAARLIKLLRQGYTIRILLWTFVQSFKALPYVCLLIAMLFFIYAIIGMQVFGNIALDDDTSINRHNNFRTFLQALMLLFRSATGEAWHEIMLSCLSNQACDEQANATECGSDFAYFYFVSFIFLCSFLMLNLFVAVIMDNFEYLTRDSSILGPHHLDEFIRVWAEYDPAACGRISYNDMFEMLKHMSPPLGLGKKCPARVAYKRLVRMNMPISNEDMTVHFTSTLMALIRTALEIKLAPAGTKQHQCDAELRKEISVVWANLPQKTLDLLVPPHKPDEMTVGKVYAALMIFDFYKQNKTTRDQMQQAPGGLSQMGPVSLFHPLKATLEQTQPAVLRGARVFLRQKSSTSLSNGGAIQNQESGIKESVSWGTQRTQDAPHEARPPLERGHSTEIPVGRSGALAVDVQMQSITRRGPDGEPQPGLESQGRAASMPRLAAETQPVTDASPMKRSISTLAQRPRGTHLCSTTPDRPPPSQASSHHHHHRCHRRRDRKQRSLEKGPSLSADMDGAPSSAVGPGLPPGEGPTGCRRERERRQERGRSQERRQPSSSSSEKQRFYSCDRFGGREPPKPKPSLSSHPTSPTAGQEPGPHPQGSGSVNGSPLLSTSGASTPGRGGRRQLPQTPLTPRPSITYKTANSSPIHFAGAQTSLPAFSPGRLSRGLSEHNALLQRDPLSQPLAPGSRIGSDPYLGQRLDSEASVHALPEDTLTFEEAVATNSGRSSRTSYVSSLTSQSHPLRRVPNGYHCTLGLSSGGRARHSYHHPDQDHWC
T6 sequence (Q02410 whole entry): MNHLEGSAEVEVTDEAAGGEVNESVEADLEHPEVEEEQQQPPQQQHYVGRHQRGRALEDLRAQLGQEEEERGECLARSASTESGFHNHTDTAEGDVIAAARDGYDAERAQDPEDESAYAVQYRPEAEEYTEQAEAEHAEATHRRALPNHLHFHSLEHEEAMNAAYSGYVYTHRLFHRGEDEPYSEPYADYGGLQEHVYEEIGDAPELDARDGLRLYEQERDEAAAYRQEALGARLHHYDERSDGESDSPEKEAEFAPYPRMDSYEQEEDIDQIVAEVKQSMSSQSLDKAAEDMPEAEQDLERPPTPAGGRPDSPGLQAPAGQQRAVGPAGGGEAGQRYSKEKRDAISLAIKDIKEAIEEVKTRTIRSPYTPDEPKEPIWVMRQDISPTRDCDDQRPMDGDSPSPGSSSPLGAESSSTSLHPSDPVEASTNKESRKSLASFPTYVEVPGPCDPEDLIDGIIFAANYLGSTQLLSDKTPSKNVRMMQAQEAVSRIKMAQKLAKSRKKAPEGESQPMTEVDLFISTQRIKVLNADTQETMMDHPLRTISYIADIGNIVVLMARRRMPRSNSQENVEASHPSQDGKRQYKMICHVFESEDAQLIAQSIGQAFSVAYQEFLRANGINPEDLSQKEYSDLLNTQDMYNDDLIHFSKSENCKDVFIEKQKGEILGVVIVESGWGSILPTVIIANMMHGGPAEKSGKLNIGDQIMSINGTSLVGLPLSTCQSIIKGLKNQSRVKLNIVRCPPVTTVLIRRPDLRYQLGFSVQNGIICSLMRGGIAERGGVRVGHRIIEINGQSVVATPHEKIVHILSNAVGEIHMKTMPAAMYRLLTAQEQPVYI
T1 sequence (P41145 whole entry): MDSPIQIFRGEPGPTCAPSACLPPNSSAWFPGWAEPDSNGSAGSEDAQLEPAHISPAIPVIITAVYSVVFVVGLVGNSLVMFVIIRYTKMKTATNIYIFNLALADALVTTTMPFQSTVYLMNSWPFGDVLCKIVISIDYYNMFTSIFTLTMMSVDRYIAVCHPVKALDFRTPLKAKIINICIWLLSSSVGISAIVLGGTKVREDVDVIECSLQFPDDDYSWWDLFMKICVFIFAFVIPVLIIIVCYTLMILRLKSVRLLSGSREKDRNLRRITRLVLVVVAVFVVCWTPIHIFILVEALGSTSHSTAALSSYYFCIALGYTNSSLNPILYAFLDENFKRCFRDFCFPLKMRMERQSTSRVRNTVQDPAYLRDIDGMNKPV
T2 sequence (P35372 whole entry): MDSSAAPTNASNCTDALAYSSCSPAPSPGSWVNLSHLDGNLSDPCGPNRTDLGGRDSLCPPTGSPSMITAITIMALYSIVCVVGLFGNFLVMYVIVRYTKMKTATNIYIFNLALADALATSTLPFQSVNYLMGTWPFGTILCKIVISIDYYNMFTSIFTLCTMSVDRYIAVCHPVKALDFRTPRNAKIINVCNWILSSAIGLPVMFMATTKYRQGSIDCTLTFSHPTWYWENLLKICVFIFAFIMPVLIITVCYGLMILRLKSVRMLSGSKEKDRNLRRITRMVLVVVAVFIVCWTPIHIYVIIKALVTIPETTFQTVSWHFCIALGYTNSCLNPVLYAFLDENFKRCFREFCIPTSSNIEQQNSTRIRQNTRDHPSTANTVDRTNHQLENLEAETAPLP

For the molecule `CCC(C)(C(=O)NC1CCCC1)N(Cc1cccs1)C(=O)c1ccccn1` (stereo not given), the half-maximal effective concentration (EC50) was 2.13 µM in series [1]; > 32 µM (inactive) in series [2]; 1.86 µM in series [4]; > 32 µM (inactive) in series [6]; > 32 µM (inactive) in [7]; > 32 µM (inactive) in [8]. The values for the EC50 in series [9] and in series [11] were 0.806 µM (active) and 2.07 µM (active), respectively. Moreover, the IC50 in series [3], in series [5], in series [10] and in [12] was > 32 µM (inactive) in each case.
As to `Oc1cccc2ccc(Nc3ccccn3)nc12`, the EC50 in series [13] is 6 µM (active); in [15], 1.12 µM (active); in series [16], 4.93 µM (inconclusive); in series [17], 0.713 µM (active); in [18], 1.55 µM (active); in series [21], 1.23 µM (active). The IC50 was > 50 µM (not active) in [14]; 3.03 µM (active) in series [22]; 2.35 µM (active) in [24]; 2.35 µM (active) in series [25]; 6.8 µM (active) in series [26]. For the same molecule, the AC50 in [19] was 1.18 µM (active); in series [20] it was 15.5 µM (active); in series [23] it was 15.1 µM (active).
Consider `O=C(COC(=O)c1cc(-c2ccco2)nc2ccccc12)NCc1ccc(Cl)cc1`, for which the IC50 is 10.4 µM (active) and > 56.8 µM (inactive) in [27]; 7.73 µM (active) and 9.82 µM (active) in series [28]; 2.84 µM (active) and 4.46 µM (active) in series [29].
In the case of `CC(C)CN1CC2(CCN(C(=O)c3csnn3)CC2)C1`, the AC50 entry in series [30] is “inactive”.

(Values after ChEMBL document CHEMBL1201862, “PubChem BioAssay data set” (2004).)
